Reference: patent US20240182495A1, “ANTIBACTERIAL COMPOUNDS” (JANSSEN SCIENCES IRELAND UNLIMITED COMPANY, priority 2021, published 2024)

Tests used:
[1] = system: Mycobacterium tuberculosis strain (EH4.0, GFP-expressing; Test 2: H37Rv); assay: MIC determination against M. tuberculosis, Test 1 (and/or Test 2); format: cell-based; settings: 7 days incubation, fluorescence; for IC50: Mycobacterium tuberculosis, H37RV, 168 h
[2] = Chemical stability testing in DMSO, ACN/H2O, ACN/0.1N HCl, ACN/0.1N NaOH (% by LCMS); format: physicochemical
Procedure: Preliminary Protocol • Add 3 μl of a 10 mM DMSO stock solution to 1 ml of the following solvents in a 1.5 ml HPLC vial. • DMSO (reference solution) • H2O/Acetonitril 1/1 (assay solution) • 0.1N HCl/Acetonitril 1/1 (assay solution) • Mix well, […] LCMS • Compare the chromatograms of the two assay solutions with the reference solution and report the additional peaks as degradation peaks

physchem = format: physicochemical; settings: 0.052 mg/mL in SGF with 33.3% ACN; remained so up to 4 hrs

SMILES	IC50 [1]	chemical stability (% by LCMS) ([2]; 48 h, 30 μM)	chemical stability (% by LCMS) ([2]; 48 h, 30 μM, pH 1.6)	chemical stability (% by LCMS) ([2]; 72 h, 30 µM)	chemical stability (% by LCMS) ([2]; 72 h, 30 µM, pH 1.6)	also measured
CCc1nc2ncc(C)cn2c1C(=O)NCCc1ccc(-c2nc3n(n2)CCN(S(=O)(=O)C(F)(F)F)C3)cc1 [Compound 66]	–	–	–	–	–	pIC50 [1]: 6.57; chemical stability (% by LCMS) ([2]; ACN/0.1N HCl (pH 1.6; 48 hr, rt)): 98%; chemical stability (% by LCMS) ([2]; ACN/H2O (48 hr, rt)): 98%; chemical stability (% by LCMS) ([2]; DMSO (0 hr, rt)): 91%
CCc1nc2ncc(C)cn2c1C(=O)NCc1ccc(-c2cc3n(n2)CCN(S(=O)(=O)C(F)(F)F)C3)cc1 [Compound 44]	2.19 nM	100%	100%	–	–	–
CCc1nc2cc(OC)c(Cl)cn2c1C(=O)NCc1ccc(-c2nc3n(n2)CCN(S(=O)(=O)C(F)(F)F)C3)c(F)c1 [Compound 10]	> 500 nM	–	–	97.03%	100%	–
Cc1cnc2nc(C3CC3)c(C(=O)NCc3ccc(-c4nc5n(n4)CCN(S(=O)(=O)C(F)(F)F)C5)cc3)n2c1 [Compound 42]	5.01 nM	100%	100%	–	–	–
CCc1nc2ncc(C)cn2c1C(=O)NCc1ccc(-c2nc3n(n2)CCN(S(=O)(=O)N2CCCC2)C3)cc1 [Compound 47]	20 nM	99%	100%	–	–	–
CCc1nc2nc(N)c(Cl)cn2c1C(=O)NCc1ccc(-c2nc3n(n2)CCN(S(=O)(=O)C(F)(F)F)C3)c(F)c1 [Compound 12]	93.3 nM	–	–	96.14%	97.06%	–
CCc1nc2ccc(Cl)cn2c1C(=O)NCc1cnc(-c2nc3n(n2)CCN(S(=O)(=O)C(F)(F)F)C3)c(F)c1 [Compound 15]	501 nM	–	–	97.03%	97.49%	–
CCc1nc2ccc(C)cn2c1C(=O)NCc1ccc(-c2cc3n(n2)CCN(S(=O)(=O)C(F)(F)F)C3)cc1 [Compound 81]	20.4 nM	100%	100%	–	–	chemical stability (% by LCMS) ([2]; 0 h, 30 μM): 95%
CCc1nc2cc(N)c(Cl)cn2c1C(=O)NCc1ccc(-c2nc3n(n2)CCN(S(=O)(=O)C(F)(F)F)C3)c(F)c1 [Compound 14]	105 nM	–	–	100%	100%	–
O=C(NCc1ccc(-c2nc3n(n2)CCN(S(=O)(=O)C(F)(F)F)C3)c(F)c1)c1c(C(F)(F)F)nc2ccccn12 [Compound 6]	83.2 nM	100%	100%	–	–	purity (physchem): 99.88%
CCc1nc2ccc(C)cn2c1C(=O)NCc1ccc(-c2nc3n(n2)CCN(S(=O)(=O)C(F)(F)F)C3)cc1 [Compound 24]	8.91 nM	100%	100%	–	–	chemical stability (% by LCMS) ([2]; 0 h, 30 μM): 100%; chemical stability (% by LCMS) ([2]; 0 h, 30 μM, pH 1.6): 100%; chemical stability (% by LCMS) ([2]; 0 h, 30 μM, pH 9): 89.46%; chemical stability (% by LCMS) ([2]; 48 h, 30 μM, pH 9): 43.8%
